Measurements taken from patent EP0830890A1, “Surfactants for use in liquid/supercritical CO2” (AIR PRODUCTS AND CHEMICALS, INC., priority 1996, dated 1998).
Each block holds one substance with its values, some of them ahead of it.

Experiments:
Assay type in all cases: physicochemical
[1] = Solubility in CO2 by cloud point determination in a variable volume view cell; parameters: Pressure Describing Cloud Point Determinations For Surfactant/CO2 Concentrations / Pressure Describing Cloud Point Determinations For Surfactant/CO2Concentrations: unit not given here
Description: In the following examples, mixtures of acetylenic alcohols or diols and CO2 were prepared by adding the acetylenic alcohol or diol to a stainless steel variable volume view cell equiped with suitable relief devices, high pressure valves CO2 inlet and outlet and a sapphire window at one end. A high pressure syringe pump (High Pressure Products, HIP pump) was filled with liquid CO2 and used to quantitiatively add CO2 to the pressure vessel. The pressure vessel contained a magnetic stirrer and was stirred via a magnetic couple to a magnet located below the vessel.
A weighed amount of surfactant (0.5-10 weight %) was placed inside the cell chamber in front of the piston. The cell window was attached and 10 cc ? s of CO2, was added to the cell. The surfactant was mixed in the CO2 using a magnetic stirring bar. The cell was mounted in horizontally and then immersed in a water bath. After allowing the high pressure cell to attain thermal equilibrium the pressure within the cell was varied using a floating piston. The pressure was changed to monitor the cloud point as being indicative of insolubility. The operator viewed the floating piston through the sapphire window using a suitable optic device, the onset of insolubility was taken when the translucent solution changed to an orange/brown color due to the Tindall light scattering of the insoluble droplets. The onset of insolubility was checked several times by varying the pressure using the high pressure syringe pump.
A water bath was used to vary the temperature for each concentration. On completing the solubility studies at one concentration and one temperature series, a calibrated injector loop attached to the high pressure cell was filled with the surfactant via a syringe. Utilizing a six way valve to help inject this fixed amount of surfactant, the surfactant concentration within the high pressure cell was increased by a fixed increment. The solubility studies for this new CO2/surfactant concentration were measured at various temperatures in a similar manner to that previously described.

[2] = Interfacial tension of a PEG 600 drop in CO2/surfactant solution via pendant drop technique; settings: for Interfacial Tension IFT: PEG (600) drop, 2 weight % Surfynol/CO2 solution
Source text: Interfacial activity can be monitored using the 'pendant drop' technique, ("Chemistry of Interfaces" M.J.Jaycock & Parfitt, John Wiley and Sons, New York p49-51). This method is utilized to measure the interfacial tension between a pendant drop and a continuous phase that surrounds the drop. When carbon dioxide is used as the continuous media, special high pressure equipment with sapphire view ports is required to maintain a solution of CO2 and surfactant, and to study the change in shape of the pendant drop for interfacial tension calculations. A general procedure for these high pressure phase behavior measurements may be found in Langmuir, vol. 10 1994, pg 3536-3541, by K. Harrison, K. P. Johnston, J. Goveas and E. A. O ? Rear.
Various ethoxylates of 2,4,7,9-tetramethyl-5-decyn-4,7-diol were used in the interfacial tension study. Table 3 gives the interfacial tension observed for ethoxylates of 2,4,7,9-tetramethyl-5-decyn-4,7-diol containing 20, 40, and 65 wt% ethylene oxide. The table also gives the interfacial tension of the polyethyleneglycol (PEG 600)drop within the pure CO2 media. […] It is interesting to note the actual reduction in interfacial tension. For a control PEG 600 drop at 2510 psi the interfacial tension was measured to be 3.39 dyne/cm (run #5in Table 3). […] This corresponds to lowering the interfacial tension by 0.54 dyne/cm, a 16% reduction. A surfactant/CO2 solution of 2 weight % (using the 40 wt% ethoxylated Surfynol surfactant) gave an interfacial tension of 1.57 dyne/cm. at a CO2 pressure of 4030 psi (run #33in Table 3). The corresponding PEG drop at 4093psi used as the control gave an interfacial tension of 1.92dyne/cm (run #18 in Table 3).

[3] = PEG (MW=600) uptake by surfactant/CO2 mixture (phase behavior, cloud point); settings: Wt% Surfactant in CO2 0.897%
[4] = Solubility in CO2 by cloud point determination in a variable volume view cell; parameters: unit not given here; settings: Surfactant Concn. in CO2 0.2486 wt%; 65°C
[5] = 2 weight % in CO2 at 2501 psi vs control PEG 600 drop at 2510 psi

Pressure Describing Cloud Point Determinations For Surfactant/CO2Concentrations ([1]; Surfactant Concn. in CO2 1.3646 wt%, 25°C): 1410 | Pressure Describing Cloud Point Determinations For Surfactant/CO2Concentrations ([1]; Surfactant Concn. in CO2 1.3646 wt%, 35°C): 2040 | Pressure Describing Cloud Point Determinations For Surfactant/CO2Concentrations ([1]; Surfactant Concn. in CO2 1.3646 wt%, 60°C): 3060 | Pressure Describing Cloud Point Determinations For Surfactant/CO2Concentrations ([1]; Surfactant Concn. in CO2 2.6028 wt%, 35°C): 2710 | Pressure Describing Cloud Point Determinations For Surfactant/CO2Concentrations ([1]; Surfactant Concn. in CO2 2.6028 wt%, 60°C): 4040 | Pressure Describing Cloud Point Determinations For Surfactant/CO2Concentrations ([1]; Surfactant Concn. in CO2 2.6028 wt%, 65°C): 4330 | Pressure Describing Cloud Point Determinations For Surfactant/CO2Concentrations ([1]; Surfactant Concn. in CO2 3.2104 wt%, 35°C): 2990 | Pressure Describing Cloud Point Determinations For Surfactant/CO2Concentrations ([1]; Surfactant Concn. in CO2 3.2104 wt%, 60°C): 3950 | Pressure Describing Cloud Point Determinations For Surfactant/CO2Concentrations ([1]; Surfactant Concn. in CO2 3.2104 wt%, 65°C): 4330 | Pressure Describing Cloud Point Determinations For Surfactant/CO2Concentrations ([1]; Surfactant Concn. in CO2 3.8330 wt%, 25°C): 1870 | Pressure Describing Cloud Point Determinations For Surfactant/CO2Concentrations ([1]; Surfactant Concn. in CO2 3.8330 wt%, 45°C): 2860 | Pressure Describing Cloud Point Determinations For Surfactant/CO2Concentrations ([1]; Surfactant Concn. in CO2 3.8330 wt%, 65°C): 3770 | surfactant is soluble in CO2 ([1]; in CO2): up to 4 wt% | lowering the interfacial tension [2, 5]: 0.54 dyne/cm | reduction in interfacial tension [2, 5]: 16% | Interfacial Tension IFT ([2]; 1984 psi (137 bar)): 3.45 dyne/cm | Interfacial Tension IFT ([2]; 2140 psi (148 bar)): 3.05 dyne/cm | Interfacial Tension IFT ([2]; 2498 psi (172 bar)): 2.75 dyne/cm | Interfacial Tension IFT ([2]; 2501 psi (173 bar)): 2.85 dyne/cm | Interfacial Tension IFT ([2]; 3007 psi (207 bar)): 2.32 dyne/cm | Interfacial Tension IFT ([2]; 3574 psi (246 bar)): 1.83 dyne/cm
Substance: Ethoxylated 2,4,7,9-Tetramethyl-5-decyn-4,7-diol [AP-420]

Pressure Describing Cloud Point Determinations For Surfactant/CO2Concentrations ([1]; Surfactant Concn. in CO2 0.6159 wt%, 25°C): 1200 | Pressure Describing Cloud Point Determinations For Surfactant/CO2Concentrations ([1]; Surfactant Concn. in CO2 0.6159 wt%, 45°C): 1750 | Pressure Describing Cloud Point Determinations For Surfactant/CO2Concentrations ([1]; Surfactant Concn. in CO2 1.2484 wt%, 25°C): 1840 | Pressure Describing Cloud Point Determinations For Surfactant/CO2Concentrations ([1]; Surfactant Concn. in CO2 1.2484 wt%, 35°C): 2610 | Pressure Describing Cloud Point Determinations For Surfactant/CO2Concentrations ([1]; Surfactant Concn. in CO2 1.8749 wt%, 60°C): 3740 | Pressure Describing Cloud Point Determinations For Surfactant/CO2Concentrations ([1]; Surfactant Concn. in CO2 2.8386 wt%, 25°C): 2580 | Pressure Describing Cloud Point Determinations For Surfactant/CO2Concentrations ([1]; Surfactant Concn. in CO2 2.8386 wt%, 45°C): 4300 | Pressure Describing Cloud Point Determinations For Surfactant/CO2Concentrations ([1]; Surfactant Concn. in CO2 2.8386 wt%, 60°C): 4510 | Pressure Describing Cloud Point Determinations For Surfactant/CO2Concentrations ([1]; Surfactant Concn. in CO2 4.0446 wt%, 25°C): 2700 | Pressure Describing Cloud Point Determinations For Surfactant/CO2Concentrations ([1]; Surfactant Concn. in CO2 4.0446 wt%, 35°C): 3740 | Pressure Describing Cloud Point Determinations For Surfactant/CO2Concentrations ([1]; Surfactant Concn. in CO2 4.0446 wt%, 45°C): 4440 | Pressure Describing Cloud Point Determinations For Surfactant/CO2Concentrations ([1]; Surfactant Concn. in CO2 4.0446 wt%, 60°C): 4670 | Wt% of PEG (MW=600) uptake ([3]; 4040 psi 25°C): 1.091% | Wt% of PEG (MW=600) uptake ([3]; 4550 psi 25°C): 1.360% | Wt% of PEG (MW=600) uptake ([3]; 5220 psi 25°C): 1.627% | reduction in interfacial tension ([2]; 2 weight % in CO2 at 4030 psi vs control PEG drop at 4093psi): 18.2% | Interfacial Tension IFT ([2]; 3146 psi (217 bar)): 2.04 dyne/cm | Interfacial Tension IFT ([2]; 3522 psi (243 bar)): 1.96 dyne/cm | Interfacial Tension IFT ([2]; 3536 psi (244 bar)): 1.93 dyne/cm | Interfacial Tension IFT ([2]; 4028 psi (278 bar)): 1.56 dyne/cm | Interfacial Tension IFT ([2]; 4030 psi (278 bar)): 1.57 dyne/cm | Interfacial Tension IFT ([2]; 4568 psi (315 bar)): 1.38 dyne/cm | Interfacial Tension IFT ([2]; 4592 psi (317 bar)): 1.35 dyne/cm
Substance: Ethoxylated 2,4,7,9-Tetramethyl-5-decyn-4,7-diol [AP-440]

Pressure Describing Cloud Point Determinations For Surfactant/CO2Concentrations [4]: 2800 | Pressure Describing Cloud Point Determinations For Surfactant/CO2Concentrations ([1]; Surfactant Concn. in CO2 0.2486 wt%, 25°C): 1440 | Pressure Describing Cloud Point Determinations For Surfactant/CO2Concentrations ([1]; Surfactant Concn. in CO2 0.2486 wt%, 35°C): 1920 | Pressure Describing Cloud Point Determinations For Surfactant/CO2Concentrations ([1]; Surfactant Concn. in CO2 0.2486 wt%, 60°C): 2690 | Pressure Describing Cloud Point Determinations For Surfactant/CO2Concentrations ([1]; Surfactant Concn. in CO2 0.8867 wt%, 35°C): 4020 | Pressure Describing Cloud Point Determinations For Surfactant/CO2Concentrations ([1]; Surfactant Concn. in CO2 0.8867 wt%, 45°C): 4590 | Pressure Describing Cloud Point Determinations For Surfactant/CO2Concentrations ([1]; Surfactant Concn. in CO2 0.8867 wt%, 60°C): 5270 | Pressure Describing Cloud Point Determinations For Surfactant/CO2Concentrations ([1]; Surfactant Concn. in CO2 0.8867 wt%, 65°C): 5470 | CO2 solubility (in words) ([1]; in CO2): poor CO2 solubility | Interfacial Tension IFT ([2]; 3599 psi (248 bar)): 1.95 dyne/cm | Interfacial Tension IFT ([2]; 3628 psi (250 bar)): 1.99 dyne/cm | Interfacial Tension IFT ([2]; 3995 psi (276 bar)): 1.73 dyne/cm | Interfacial Tension IFT ([2]; 3998 psi (276 bar)): 1.66 dyne/cm | Interfacial Tension IFT ([2]; 4505 psi (311 bar)): 1.51 dyne/cm | Interfacial Tension IFT ([2]; 4508 psi (311 bar)): 1.57 dyne/cm
Substance: Ethoxylated 2,4,7,9-Tetramethyl-5-decyn-4,7-diol [AP-465]
